The values that follow come from article PMC4790851, “Iminosugars Inhibit Dengue Virus Production via Inhibition of ER Alpha-Glucosidases—Not Glycolipid Processing Enzymes” (PLoS Neglected Tropical Diseases, 2016).

One series concerns DENV2 strain 16681. The experiment in a line: In vitro antiviral assay: infectious DENV titer from infected MDMΦs by LLC-MK2 plaque assay. It counts as cell-based, dengue virus serotype 2. The following applies: Dengue virus, DENV2, LLC-MK2, 48 h, MDMΦs infected with DENV2 MOI 1, drug 48 h, infectious titer by plaque assay; table values with 95% confidence interval in parentheses; read-out: EC50.

The next series deals with MDMΦs. The experiment in a line: Cytotoxicity, MTS cell proliferation assay. Type of series: cell-based, human. The procedure:
Cytotoxicity of compounds was assessed by a cell proliferation assay for metabolic activity using a CellTiter 96 AQueous One Solution Cell Proliferation Assay (Promega) as per the manufacturer’s instructions. Briefly, 20 μl of a solution containing tetrazolium compound [3-(4,5-[…])-5-(3-carboxymethoxyphenyl)-2-(4-sulfophenyl)-2H-tetrazolium; MTS] and electron coupling reagent (phenazine ethosulfate) was added to cells covered or suspended in 100 μl of culture medium in a 96-well plate. Samples were incubated for approximately 4 hours (37°C, 5% CO2), and the absorbance at 490 nm (A490) was measured on a SpectraMax M5 microplate reader (Molecular Devices).
Background: Tetrazolium dyes change colour on reduction, which living cells bring about.

Series [1] addresses T1, Mouse ER α-glucosidase II (Mus musculus, UniProt Q8BHN3).
T1 sequence (Q8BHN3 33-944): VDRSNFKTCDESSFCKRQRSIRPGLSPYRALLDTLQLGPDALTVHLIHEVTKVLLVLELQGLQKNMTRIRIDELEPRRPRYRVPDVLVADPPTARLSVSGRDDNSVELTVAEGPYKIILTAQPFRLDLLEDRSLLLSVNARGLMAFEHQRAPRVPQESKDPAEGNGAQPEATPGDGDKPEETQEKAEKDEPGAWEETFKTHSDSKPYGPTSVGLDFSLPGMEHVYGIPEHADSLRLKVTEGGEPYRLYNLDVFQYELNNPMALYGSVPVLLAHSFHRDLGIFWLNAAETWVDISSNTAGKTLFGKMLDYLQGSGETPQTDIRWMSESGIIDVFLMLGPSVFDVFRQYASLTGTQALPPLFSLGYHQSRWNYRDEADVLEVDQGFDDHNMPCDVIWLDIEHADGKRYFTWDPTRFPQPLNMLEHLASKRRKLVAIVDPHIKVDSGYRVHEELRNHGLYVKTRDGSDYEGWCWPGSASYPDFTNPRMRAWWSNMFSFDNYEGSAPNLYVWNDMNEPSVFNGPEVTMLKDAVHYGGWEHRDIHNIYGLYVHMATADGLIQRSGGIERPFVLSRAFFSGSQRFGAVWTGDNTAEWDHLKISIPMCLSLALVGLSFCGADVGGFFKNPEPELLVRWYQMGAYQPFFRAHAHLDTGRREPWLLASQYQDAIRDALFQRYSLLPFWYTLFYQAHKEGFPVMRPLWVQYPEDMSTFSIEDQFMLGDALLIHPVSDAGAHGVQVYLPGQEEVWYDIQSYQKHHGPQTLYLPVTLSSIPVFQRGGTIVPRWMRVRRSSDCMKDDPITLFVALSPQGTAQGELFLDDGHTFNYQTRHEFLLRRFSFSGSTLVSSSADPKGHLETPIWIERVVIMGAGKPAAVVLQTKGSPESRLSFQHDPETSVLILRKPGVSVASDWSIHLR
T1 sequence (O08795 15-521 partner): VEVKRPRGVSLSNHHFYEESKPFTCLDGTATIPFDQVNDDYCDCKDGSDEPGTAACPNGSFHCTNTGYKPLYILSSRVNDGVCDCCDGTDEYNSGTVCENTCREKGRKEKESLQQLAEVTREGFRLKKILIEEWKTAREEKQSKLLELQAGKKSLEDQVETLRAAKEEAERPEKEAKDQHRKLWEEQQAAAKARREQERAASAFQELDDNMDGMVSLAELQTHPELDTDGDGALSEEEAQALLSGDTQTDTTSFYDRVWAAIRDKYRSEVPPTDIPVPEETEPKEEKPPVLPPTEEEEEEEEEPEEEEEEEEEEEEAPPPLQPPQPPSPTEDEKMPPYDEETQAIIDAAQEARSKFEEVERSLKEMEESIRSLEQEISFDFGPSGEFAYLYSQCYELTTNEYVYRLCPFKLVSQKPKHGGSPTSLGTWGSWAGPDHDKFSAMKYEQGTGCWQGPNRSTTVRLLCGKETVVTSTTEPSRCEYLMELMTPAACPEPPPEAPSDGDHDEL
The experiment in a line: In vitro enzyme inhibition, 4MUG hydrolysis. It counts as biochemical. Particulars: concentration required to inhibit the enzyme to 50% activity. The procedure: Recombinant Mus musculus ER alpha-glucosidase II inhibition was measured by incubating 20 nM enzyme with various concentrations of inhibitors in 100 mM potassium phosphate pH 7.2 at 37 °C for 5 minutes. Activity was measured by addition of 0.25 mM 4-methylumbelliferyl α-D-glucopyranoside (4MUG) (Sigma Aldrich) in black, non-binding surface-treated microplates (Corning). Fluorescence upon hydrolysis of the 4MUG was measured at λex of 355 nm and λem of 460 nm in a M5 multi-mode plate reader (Molecular Devices) at 37 °C, measuring fluorescence every minute for a total of 30 minutes. The initial velocity was fit in the linear range of measurements, and activity was normalized to the uninhibited control in order to plot activity against the inhibitor concentration. A sigmoidal, four-parameter function with a variable slope was used to determine the EC50 values in Prism (GraphPad).

For a further series, the target named is Rat intestinal maltase. The experiment in a line: In vitro enzyme inhibition, glucose release from disaccharide. Particulars: concentration required to inhibit the enzyme to 50% activity. Type of series: biochemical. Here is the method: Inhibition of glucosidases and glycosidases was detected as previously described. Briefly, assays were performed at the optimum pH of each enzyme, and appropriate disaccharide was provided as substrate for glucosidase release assays. Release of D-glucose was measured using a Glucose B-test (Wako Diagnostics). Appropriate p-nitrophenyl glycoside was added as substrate for additional glycosidase assays, and assays were stopped by adding 400 mM Na2CO3. Release of p-nitrophenol was measured spectrophotometrically at 400 nm.

In series [2] the target is T2, Rat intestinal isomaltase (Rattus norvegicus, UniProt P23739).
T2 construct: from tissue; host or cells: rat intestine
T2 sequence (P23739 whole entry): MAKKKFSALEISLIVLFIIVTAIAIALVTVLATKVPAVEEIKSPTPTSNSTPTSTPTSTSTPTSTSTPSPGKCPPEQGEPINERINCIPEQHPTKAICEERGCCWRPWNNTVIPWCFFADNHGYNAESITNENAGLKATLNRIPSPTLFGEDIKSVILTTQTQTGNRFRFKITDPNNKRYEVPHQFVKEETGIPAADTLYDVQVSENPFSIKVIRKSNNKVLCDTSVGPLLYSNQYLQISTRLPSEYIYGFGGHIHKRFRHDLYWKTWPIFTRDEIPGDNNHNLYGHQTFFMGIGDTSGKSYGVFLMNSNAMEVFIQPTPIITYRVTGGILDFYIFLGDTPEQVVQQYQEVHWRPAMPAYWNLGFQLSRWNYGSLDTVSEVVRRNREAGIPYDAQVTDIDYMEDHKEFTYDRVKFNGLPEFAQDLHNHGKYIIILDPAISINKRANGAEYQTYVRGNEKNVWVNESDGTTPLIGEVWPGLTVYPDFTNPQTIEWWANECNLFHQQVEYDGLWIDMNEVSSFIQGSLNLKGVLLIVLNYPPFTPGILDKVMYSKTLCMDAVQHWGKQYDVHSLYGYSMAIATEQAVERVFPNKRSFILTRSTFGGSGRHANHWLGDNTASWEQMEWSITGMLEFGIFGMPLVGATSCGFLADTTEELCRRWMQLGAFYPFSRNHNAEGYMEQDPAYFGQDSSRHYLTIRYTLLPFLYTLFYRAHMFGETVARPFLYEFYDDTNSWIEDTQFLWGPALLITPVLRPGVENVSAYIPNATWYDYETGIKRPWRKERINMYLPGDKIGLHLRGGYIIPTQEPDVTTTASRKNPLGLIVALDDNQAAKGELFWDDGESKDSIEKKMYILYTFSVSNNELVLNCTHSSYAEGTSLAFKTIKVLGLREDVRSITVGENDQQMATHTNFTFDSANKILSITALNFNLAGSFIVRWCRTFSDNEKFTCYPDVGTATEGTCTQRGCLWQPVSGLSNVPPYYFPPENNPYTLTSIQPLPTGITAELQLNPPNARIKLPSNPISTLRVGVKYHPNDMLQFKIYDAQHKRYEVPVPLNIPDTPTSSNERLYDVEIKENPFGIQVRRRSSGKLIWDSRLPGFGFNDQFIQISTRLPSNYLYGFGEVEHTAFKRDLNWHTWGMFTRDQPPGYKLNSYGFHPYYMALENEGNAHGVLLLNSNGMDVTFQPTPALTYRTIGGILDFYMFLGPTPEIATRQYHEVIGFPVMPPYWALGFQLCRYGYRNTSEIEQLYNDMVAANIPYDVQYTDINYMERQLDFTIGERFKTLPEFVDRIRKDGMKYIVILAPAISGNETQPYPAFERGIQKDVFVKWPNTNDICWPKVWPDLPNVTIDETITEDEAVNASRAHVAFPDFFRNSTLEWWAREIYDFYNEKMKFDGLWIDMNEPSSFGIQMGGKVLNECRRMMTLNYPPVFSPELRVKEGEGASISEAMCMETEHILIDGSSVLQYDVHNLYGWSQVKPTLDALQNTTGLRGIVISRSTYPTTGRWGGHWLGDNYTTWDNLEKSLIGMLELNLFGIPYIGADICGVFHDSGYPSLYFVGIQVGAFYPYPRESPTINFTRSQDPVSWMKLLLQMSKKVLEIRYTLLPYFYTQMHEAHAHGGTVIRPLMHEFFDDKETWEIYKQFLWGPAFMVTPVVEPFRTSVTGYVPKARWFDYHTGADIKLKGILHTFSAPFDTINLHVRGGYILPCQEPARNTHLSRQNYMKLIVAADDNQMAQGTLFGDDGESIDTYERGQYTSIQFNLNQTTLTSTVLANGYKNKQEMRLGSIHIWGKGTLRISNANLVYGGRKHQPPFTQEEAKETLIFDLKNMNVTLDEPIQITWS
The series is described as above. Type of series: biochemical.

A further series deals with T3, Rat intestinal sucrase (Rattus norvegicus, UniProt P23739).
T3 construct: from tissue; host or cells: rat intestine
T3 sequence (P23739 whole entry): as above
Described as above. Type of series: biochemical.

Series [3] has as its target Human lysosome α-glucosidase (Homo sapiens, UniProt P10253). The experiment in a line: In vitro enzyme inhibition. It counts as biochemical.
For series [4], the target named is T4, Human lysosome α-galactosidase (Homo sapiens, UniProt P06280).
T4 sequence (P06280 32-429): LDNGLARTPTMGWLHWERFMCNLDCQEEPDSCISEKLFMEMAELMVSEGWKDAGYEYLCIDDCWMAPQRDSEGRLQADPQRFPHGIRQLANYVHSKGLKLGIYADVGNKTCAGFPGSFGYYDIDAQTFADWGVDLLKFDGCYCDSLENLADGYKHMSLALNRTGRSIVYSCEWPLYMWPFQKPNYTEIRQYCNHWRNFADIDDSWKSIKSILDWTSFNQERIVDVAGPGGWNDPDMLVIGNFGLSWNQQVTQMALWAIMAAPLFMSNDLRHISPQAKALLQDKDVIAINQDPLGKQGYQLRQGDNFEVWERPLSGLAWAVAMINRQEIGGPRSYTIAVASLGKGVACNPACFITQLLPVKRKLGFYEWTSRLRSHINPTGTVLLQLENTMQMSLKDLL
Briefly: In vitro enzyme inhibition. Type of series: biochemical.

In series [5] the test system is monosialodihexosylganglioside (GM3) production. Briefly: Glycosphingolipid analysis: GM3 levels in MDMΦs by NP-HPLC. It counts as cell-based, human. Particulars: 48 h, uninfected MDMΦ, normalized to untreated controls, mean ± SD, min. 3 donors.
A further series addresses T5, Glucosyltransferase HL60 (Homo sapiens, UniProt Q16739).
T5 construct: endogenous in cells; host or cells: HL60
T5 sequence (Q16739 1-394): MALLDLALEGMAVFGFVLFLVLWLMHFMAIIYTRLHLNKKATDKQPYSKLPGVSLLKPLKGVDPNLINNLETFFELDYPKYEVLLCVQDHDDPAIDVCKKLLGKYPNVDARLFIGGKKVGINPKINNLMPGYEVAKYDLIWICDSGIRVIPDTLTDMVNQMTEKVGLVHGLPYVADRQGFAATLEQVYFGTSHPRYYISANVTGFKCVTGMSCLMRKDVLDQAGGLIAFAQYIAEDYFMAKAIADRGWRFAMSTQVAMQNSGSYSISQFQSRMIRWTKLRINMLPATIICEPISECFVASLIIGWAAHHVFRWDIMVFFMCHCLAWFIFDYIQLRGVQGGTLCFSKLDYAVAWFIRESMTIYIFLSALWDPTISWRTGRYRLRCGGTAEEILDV
Briefly: In vitro enzyme inhibition. Type of series: biochemical.

Another series relates to DENV. On the set-up: method as in PMID 23070155, PMID 23376501, PMID 22020302, PMID 22867971. Particulars: post-exposure therapeutic administration; cited from earlier work.
Where [6] appears, read: concentration required to inhibit the enzyme to 50% activity, read-out: IC50.

Read-outs that look alike come from different tables or passages of the source.

For `CCCCCCCCCN1C[C@H](O)[C@@H](O)[C@H](O)[C@H]1CO` [NN-DNJ], the EC50 (as a rule, the concentration at which the effect is half-maximal) in the series with DENV2 strain 16681 came to 1.25 µM. Further, the “MNTD (maximum non-toxic dose tested)” value in the series on MDMΦs was 31.6 µM. Further, the IC50 (commonly the concentration that inhibits the measured activity by half) came to 3.1 µM in [1]; 0.46 µM on Rat intestinal maltase; 7.3 µM in series [2] (setting [6]); 0.74 µM at Rat intestinal sucrase (setting [6]); 0.14 µM in series [3] (setting [6]); 765 µM in [4] (setting [6]). Further, the “GM3 production (%)” value in [5] (31.6 μM (MNTD)) worked out at 5.9 ± 1.2%.
Turning to `O[C@H]1[C@H](O)[C@@H](O)CN2CC[C@H](O)[C@H]12` [Castanospermine, castanospermine], the EC50 in the series on DENV2 strain 16681 amounted to 36.4 µM. Moreover, the “MNTD (maximum non-toxic dose tested)” value in the series on MDMΦs came to 100 µM. In addition, the IC50 is 58.9 µM in series [1]; 0.37 µM on Rat intestinal maltase; 6.1 µM in series [2]; 0.28 µM on Rat intestinal sucrase; 2 µM in [3]; above 1000 µM against Glucosyltransferase HL60. In addition, the IC50 in series [4] was above 1000 µM. In addition, in series [5] (100 μM (MNTD)), the “GM3 production (%)” value came out at 101.6 ± 6.7%.
Regarding `OC[C@H]1NC[C@H](O)[C@@H](O)[C@@H]1O` [DNJ, 1-Deoxynojirimycin], the EC50 in the series with DENV2 strain 16681 was 308 µM. Further, the “MNTD (maximum non-toxic dose tested)” value with MDMΦs turned out to be 10000 µM. Besides, the IC50 was found to be 11.4 µM in [1], 0.2 µM at Rat intestinal maltase and 0.8 µM in series [2] (setting [6]).
`COCCCCCCCCCN1C[C@H](O)[C@@H](O)[C@H](O)[C@H]1CO` [MON-DNJ, N-(9-methoxynonyl)-DNJ]: the “protection in lethal mouse models of DENV infection” value with DENV was “protection in lethal mouse models”.
Regarding `OC[C@H]1NC[C@H](O)[C@@H](O)[C@H]1O` [DGJ, 1-deoxygalactonojirimycin], the IC50 in series [1] was above 1000 µM; on Rat intestinal maltase, 362 µM; in series [2] (setting [6]) it was above 1000 µM; at Rat intestinal sucrase (setting [6]), 340 µM.
